Key:
Format in all cases: in vivo
[1] = tested on: wheat (Triticum aestivum); test: Test B postemergence; settings: 13 to 15 days
Method in brief: (§1)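 Visual injury scores, 0 = no effect to 100 = complete control, assigned against controls after 13 to 15 days in the greenhouse. Compounds formulated in non-phytotoxic solvent plus surfactant and applied to soil after planting (pre) or onto foliage of 1- to 4-leaf plants (post).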

[2] = tested on: crabgrass (Digitaria sanguinalis); test: Test B postemergence; settings: 13 to 15 days
Method in brief: as §1

[3] = tested on: barnyardgrass (Echinochloa crus-galli); test: Test B postemergence; settings: 13 to 15 days
Method in brief: as §1

[4] = tested on: giant foxtail (Setaria faberii); test: Test B postemergence; settings: 13 to 15 days
Method in brief: as §1

[5] = tested on: velvetleaf (Abutilon theophrasti); test: Test B postemergence; settings: 13 to 15 days
Method in brief: as §1

[6] = tested on: pigweed (Amaranthus retroflexus); test: Test B postemergence; settings: 13 to 15 days
Method in brief: as §1

corn (Zea mays) [7] = test: Test B postemergence; settings: 13 to 15 days
Method in brief: as §1

[8] = tested on: cocklebur (Xanthium strumarium); test: Test B postemergence; settings: 13 to 15 days
Method in brief: as §1

[9] = tested on: Surinam grass (Brachiaria decumbens); test: Test B postemergence; settings: 13 to 15 days
Method in brief: as §1

wild oat (Avena fatua) = test: Test B postemergence; settings: 13 to 15 days
Method in brief: as §1

[10] = tested on: morning glory (Ipomoea hederacea); test: Test B postemergence; settings: 13 to 15 days
Method in brief: as §1

Sunflower [11] = test: Test C preemergence; settings: Rate 250 g/ha, visual evaluation after 12 to 14 days
[12] = tested on: yellow nutsedge (Cyperus esculentus); test: Test C preemergence; settings: for Plant response rating (0 to 100), Nutsedge: Rate 250 g/ha, visual evaluation after 12 to 14 days
Method in brief: (§2)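 Response scores (0 no effect to 100 complete control) came from visual comparison with untreated controls 12 to 14 days after treatment. Preemergence application was made to seeded soil; postemergence, to plants at the 1- to 4-leaf stage.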

[13] = tested on: goosegrass (Eleusine indica); test: Test C preemergence; settings: for Plant response rating (0 to 100), Goosegrass: Rate 250 g/ha, visual evaluation after 12 to 14 days
Method in brief: as §2

Sunflower [14] = test: Test C preemergence
[15] = tested on: velvetleaf (Abutilon theophrasti); test: Test C preemergence; settings: for Plant response rating (0 to 100), Velvetleaf: Rate 250 g/ha, visual evaluation after 12 to 14 days
Method in brief: as §2

[16] = tested on: common ragweed (Ambrosia elatior); test: Test C preemergence; settings: for Plant response rating (0 to 100), Ragweed, Common: Rate 250 g/ha, visual evaluation after 12 to 14 days
Method in brief: as §2

[17] = tested on: morningglory (Ipomoea hederacea); test: Test C preemergence; settings: for Plant response rating (0 to 100), Morningglory: Rate 250 g/ha, visual evaluation after 12 to 14 days
Method in brief: as §2

[18] = tested on: lambsquarters (Chenopodium album); test: Test C preemergence; settings: for Plant response rating (0 to 100), Lambsquarters: Rate 250 g/ha, visual evaluation after 12 to 14 days
Method in brief: as §2

corn (Zea mays) [19] = test: Test C preemergence; settings: for Plant response rating (0 to 100), Corn: Rate 250 g/ha, visual evaluation after 12 to 14 days
Method in brief: as §2

Nightshade = test: Test C preemergence
[20] = tested on: johnsongrass (Sorghum halepense); test: Test C preemergence; settings: for Plant response rating (0 to 100), Johnsongrass: Rate 250 g/ha, visual evaluation after 12 to 14 days
Method in brief: as §2

[21] = Rate 125 g/ha, scale 0 (no effect) to 100 (complete control)
[22] = Rate 500 g/ha, scale 0 to 100, 0 is no effect, 100 is complete control
[23] = Preemergence, Rate 500 g/ha, scale 0 to 100
[24] = preemergence, Rate 125 g/ha, scale 0 to 100, 0 no effect, 100 complete control
[25] = Rate 62 g/ha, scale 0 to 100, 0 no effect, 100 complete control
[26] = Rate 125 g/ha, scale 0 to 100, 0 no effect, 100 complete control
[27] = preemergence, Rate 31 g/ha, scale 0 to 100

## O=C1C(n2ccc(C3CCC3)n2)SCN1c1cccc(OC(F)F)c1 (centres unmarked) [Compound 45]
[1]; [21]
  Plant response rating, Wheat: 0
[1]; [22]
  Plant response rating, Wheat: 0
[2]; [21]
  Plant response rating, Crabgrass: 0
[2]; [22]
  Plant response rating, Crabgrass: 0
[3]; [21]
  Plant response rating, Barnyardgrass: 30
[3]; [22]
  Plant response rating, Barnyardgrass: 100
[4]; [21]
  Plant response rating, Foxtail, Giant: 0
[4]; [22]
  Plant response rating, Foxtail, Giant: 0
[5]; [21]
  Plant response rating, Velvetleaf: 0
[5]; [22]
  Plant response rating, Velvetleaf: 0
[6]; [21]
  Plant response rating, Pigweed: 0
[6]; [22]
  Plant response rating, Pigweed: 0
Corn (Zea mays) [7]; [21]
  Plant response rating, Corn: 0
Corn (Zea mays) [7]; [22]
  Plant response rating, Corn: 0
[8]; [21]
  Plant response rating, Cocklebur: 20
[8]; [22]
  Plant response rating, Cocklebur: 40
[9]; [21]
  Plant response rating, Surinam grass: 0
[9]; [22]
  Plant response rating, Surinam grass: 0
Wild oat (Avena fatua); [21]
  Plant response rating, Wild Oat: 0
Wild oat (Avena fatua); [22]
  Plant response rating, Wild Oat: 0
[10]; [21]
  Plant response rating, Morningglory: 0
[10]; [22]
  Plant response rating, Morningglory: 0
Sunflower [11]
  Plant response rating (0 to 100), Sunflower: 20
[12]; [23]
  Plant response rating, Nutsedge: 100
[12]; preemergence
  Plant response rating (0 to 100), Nutsedge: 60
[12]; [24]
  Plant response rating, Nutsedge: 0
[13]; [23]
  Plant response rating, Goosegrass: 100
[13]; [25]
  Plant response rating, Goosegrass: 90
[13]; preemergence
  Plant response rating (0 to 100), Goosegrass: 100
[13]; [24]
  Plant response rating, Goosegrass: 100
Sunflower [14]; [25]
  Plant response rating, Sunflower: 20
Sunflower [14]; Rate 500 g/ha, scale 0 to 100
  Plant response rating, Sunflower: 70
[15]; [23]
  Plant response rating, Velvetleaf: 30
[15]; [25]
  Plant response rating, Velvetleaf: 0
[15]; preemergence
  Plant response rating (0 to 100), Velvetleaf: 20
[15]; [24]
  Plant response rating, Velvetleaf: 0
[16]; [23]
  Plant response rating, Ragweed, Common: 60
[16]; [25]
  Plant response rating, Ragweed, Common: 0
[16]; preemergence
  Plant response rating (0 to 100), Ragweed, Common: 30
[16]; [24]
  Plant response rating, Ragweed, Common: 0
[17]; [23]
  Plant response rating, Morningglory: 0
[17]; [25]
  Plant response rating, Morningglory: 0
[17]; preemergence
  Plant response rating (0 to 100), Morningglory: 0
[17]; [24]
  Plant response rating, Morningglory: 0
[18]; [23]
  Plant response rating, Lambsquarters: 100
[18]; [25]
  Plant response rating, Lambsquarters: 60
[18]; preemergence
  Plant response rating (0 to 100), Lambsquarters: 100
[18]; [24]
  Plant response rating, Lambsquarters: 100
Corn (Zea mays) [19]; [23]
  Plant response rating, Corn: 0
Corn (Zea mays) [19]; [25]
  Plant response rating, Corn: 0
Corn (Zea mays) [19]; preemergence
  Plant response rating (0 to 100), Corn: 0
Corn (Zea mays) [19]; [24]
  Plant response rating, Corn: 0
Nightshade; [25]
  Plant response rating, Nightshade: 0
Nightshade; [26]
  Plant response rating, Nightshade: 0
Nightshade; Rate 500 g/ha, scale 0 to 100
  Plant response rating, Nightshade: 40
[20]; [23]
  Plant response rating, Johnsongrass: 100
[20]; [25]
  Plant response rating, Johnsongrass: 0
[20]; preemergence
  Plant response rating (0 to 100), Johnsongrass: 50
[20]; [24]
  Plant response rating, Johnsongrass: 0

## CC(C)(C)c1ccn(C2CCN(c3cccc(OC(F)(F)F)c3)C2=O)n1 (centres unmarked) [Compound 49]
[1]; [21]
  Plant response rating, Wheat: 0
[1]; [22]
  Plant response rating, Wheat: 0
[2]; [21]
  Plant response rating, Crabgrass: 0
[2]; [22]
  Plant response rating, Crabgrass: 40
[3]; [21]
  Plant response rating, Barnyardgrass: 0
[3]; [22]
  Plant response rating, Barnyardgrass: 80
[4]; [21]
  Plant response rating, Foxtail, Giant: 0
[4]; [22]
  Plant response rating, Foxtail, Giant: 0
[5]; [21]
  Plant response rating, Velvetleaf: 0
[5]; [22]
  Plant response rating, Velvetleaf: 40
[6]; [21]
  Plant response rating, Pigweed: 30
[6]; [22]
  Plant response rating, Pigweed: 30
Corn (Zea mays) [7]; [21]
  Plant response rating, Corn: 0
Corn (Zea mays) [7]; [22]
  Plant response rating, Corn: 0
[8]; [21]
  Plant response rating, Cocklebur: 0
[8]; [22]
  Plant response rating, Cocklebur: 30
[9]; [21]
  Plant response rating, Surinam grass: 0
[9]; [22]
  Plant response rating, Surinam grass: 90
Wild oat (Avena fatua); [21]
  Plant response rating, Wild Oat: 0
Wild oat (Avena fatua); [22]
  Plant response rating, Wild Oat: 30
[10]; [21]
  Plant response rating, Morningglory: 0
[10]; [22]
  Plant response rating, Morningglory: 30
Sunflower [11]
  Plant response rating (0 to 100), Sunflower: 30
[12]; [23]
  Plant response rating, Nutsedge: 0
[12]; [25]
  Plant response rating, Nutsedge: 40
[12]; [27]
  Plant response rating, Nutsedge: 30
[12]; preemergence
  Plant response rating (0 to 100), Nutsedge: 0
[12]; [24]
  Plant response rating, Nutsedge: 50
[13]; [23]
  Plant response rating, Goosegrass: 100
[13]; [25]
  Plant response rating, Goosegrass: 100
[13]; [27]
  Plant response rating, Goosegrass: 0
[13]; preemergence
  Plant response rating (0 to 100), Goosegrass: 100
[13]; [24]
  Plant response rating, Goosegrass: 100
Sunflower [14]; [25]
  Plant response rating, Sunflower: 20
Sunflower [14]; Rate 500 g/ha, scale 0 to 100
  Plant response rating, Sunflower: 80
[15]; [23]
  Plant response rating, Velvetleaf: 40
[15]; [25]
  Plant response rating, Velvetleaf: 0
[15]; [27]
  Plant response rating, Velvetleaf: 0
[15]; preemergence
  Plant response rating (0 to 100), Velvetleaf: 30
[15]; [24]
  Plant response rating, Velvetleaf: 0
[16]; [23]
  Plant response rating, Ragweed, Common: 90
[16]; [25]
  Plant response rating, Ragweed, Common: 0
[16]; [27]
  Plant response rating, Ragweed, Common: 0
[16]; preemergence
  Plant response rating (0 to 100), Ragweed, Common: 30
[16]; [24]
  Plant response rating, Ragweed, Common: 30
[17]; [23]
  Plant response rating, Morningglory: 30
[17]; [25]
  Plant response rating, Morningglory: 0
[17]; [27]
  Plant response rating, Morningglory: 0
[17]; preemergence
  Plant response rating (0 to 100), Morningglory: 0
[17]; [24]
  Plant response rating, Morningglory: 0
[18]; [23]
  Plant response rating, Lambsquarters: 100
[18]; [25]
  Plant response rating, Lambsquarters: 100
[18]; [27]
  Plant response rating, Lambsquarters: 100
[18]; preemergence
  Plant response rating (0 to 100), Lambsquarters: 100
[18]; [24]
  Plant response rating, Lambsquarters: 100
Corn (Zea mays) [19]; [23]
  Plant response rating, Corn: 0
Corn (Zea mays) [19]; [25]
  Plant response rating, Corn: 0
Corn (Zea mays) [19]; [27]
  Plant response rating, Corn: 0
Corn (Zea mays) [19]; preemergence
  Plant response rating (0 to 100), Corn: 0
Corn (Zea mays) [19]; [24]
  Plant response rating, Corn: 0
Nightshade; Rate 31 g/ha, scale 0 to 100
  Plant response rating, Nightshade: 0
Nightshade; [25]
  Plant response rating, Nightshade: 0
Nightshade; [26]
  Plant response rating, Nightshade: 30
Nightshade; Rate 500 g/ha, scale 0 to 100
  Plant response rating, Nightshade: 90
[20]; [23]
  Plant response rating, Johnsongrass: 90
[20]; [25]
  Plant response rating, Johnsongrass: 0
[20]; [27]
  Plant response rating, Johnsongrass: 0
[20]; preemergence
  Plant response rating (0 to 100), Johnsongrass: 50
[20]; [24]
  Plant response rating, Johnsongrass: 0
